Laboratory results reported in ChEMBL document CHEMBL4834485, “Designed, synthesized and biological evaluation of proteolysis targeting chimeras (PROTACs) as AR degraders for prostate cancer treatment” (Bioorg Med Chem, 2021).
Active and inactive are the calls of the source. No cut-off for these calls is given here.

Key:
[1] = Drug uptake in AR-positive human LNCaP cells assessed as increase in fluorescence intensity at 10 uM incubated for 24 hrs by DAPI staining based confocal laser scanning microscopy; format: ADME
[2] = Drug uptake in AR-negative human PC-3 cells assessed as increase in fluorescence intensity at 10 uM incubated for 24 hrs by DAPI staining based confocal laser scanning microscopy; format: ADME, cell-based; conditions: pc-3, 24 h
[3] = molecular target: T1, Protein cereblon/Androgen receptor (Homo sapiens) (UniProt P10275+Q96SW2); assay: PROTAC activity at CRBN/AR in human LNCaP cells assessed as induction of AR degradation by measuring downregulation of AR protein expression at 30 uM measured after 24 hrs by western blot assay; format: cell-based
[4] = molecular target: T1, Protein cereblon/Androgen receptor (Homo sapiens); assay: PROTAC activity at CRBN/AR in human LNCaP cells assessed as induction of AR degradation by measuring downregulation of AR protein expression measured after 24 hrs by western blot assay; format: cell-based; conditions: dose 10-30 µM

T1 sequence (P10275 whole entry, looked up): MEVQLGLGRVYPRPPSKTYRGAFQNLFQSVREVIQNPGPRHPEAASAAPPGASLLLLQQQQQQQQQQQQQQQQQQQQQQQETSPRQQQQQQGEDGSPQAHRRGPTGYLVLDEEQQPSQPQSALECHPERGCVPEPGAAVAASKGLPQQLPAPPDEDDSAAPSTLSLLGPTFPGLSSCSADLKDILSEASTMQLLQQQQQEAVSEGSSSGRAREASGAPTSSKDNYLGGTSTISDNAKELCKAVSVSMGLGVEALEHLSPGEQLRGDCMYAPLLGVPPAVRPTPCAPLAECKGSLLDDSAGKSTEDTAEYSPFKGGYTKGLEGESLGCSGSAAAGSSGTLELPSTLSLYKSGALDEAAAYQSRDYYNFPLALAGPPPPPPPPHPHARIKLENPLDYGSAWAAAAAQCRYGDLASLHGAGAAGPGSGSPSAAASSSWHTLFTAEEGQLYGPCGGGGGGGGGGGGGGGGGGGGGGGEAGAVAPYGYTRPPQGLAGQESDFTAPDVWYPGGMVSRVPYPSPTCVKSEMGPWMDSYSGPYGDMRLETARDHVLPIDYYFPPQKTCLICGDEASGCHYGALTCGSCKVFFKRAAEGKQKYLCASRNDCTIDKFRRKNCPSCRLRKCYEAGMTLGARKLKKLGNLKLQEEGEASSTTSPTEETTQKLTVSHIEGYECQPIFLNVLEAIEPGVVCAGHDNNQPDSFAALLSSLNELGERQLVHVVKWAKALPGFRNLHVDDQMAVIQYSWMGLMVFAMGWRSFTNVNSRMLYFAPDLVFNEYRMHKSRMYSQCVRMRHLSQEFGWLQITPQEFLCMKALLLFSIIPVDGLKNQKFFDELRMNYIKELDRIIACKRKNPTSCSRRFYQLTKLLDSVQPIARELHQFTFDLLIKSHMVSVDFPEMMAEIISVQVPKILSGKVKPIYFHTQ
T1 sequence (Q96SW2 whole entry, looked up): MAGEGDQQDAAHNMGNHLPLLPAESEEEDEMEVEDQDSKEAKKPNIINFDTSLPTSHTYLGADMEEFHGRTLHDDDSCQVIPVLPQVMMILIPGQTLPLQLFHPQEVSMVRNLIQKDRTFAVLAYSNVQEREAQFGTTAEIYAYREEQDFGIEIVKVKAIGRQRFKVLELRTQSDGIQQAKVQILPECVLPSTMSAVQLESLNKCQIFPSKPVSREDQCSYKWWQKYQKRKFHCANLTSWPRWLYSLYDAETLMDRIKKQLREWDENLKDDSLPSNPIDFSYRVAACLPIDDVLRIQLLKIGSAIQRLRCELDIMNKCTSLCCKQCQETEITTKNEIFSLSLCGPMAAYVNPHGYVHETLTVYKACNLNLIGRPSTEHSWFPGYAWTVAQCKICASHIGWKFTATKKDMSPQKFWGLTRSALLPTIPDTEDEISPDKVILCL

Structure (SMILES) | Drug uptake [1] | Drug uptake [2] | Activity [3] | Activity [4]
Nc1cccc2c1C(=O)N(C1CCC(=O)NC1=O)C2=O (centres undefined) [POMALIDOMIDE] | Active | Active |  | 
CC1(C)C(=O)N(c2ccc(C#N)c(C(F)(F)F)c2)C(=S)N1CCCn1cc(COCCOCCOc2cccc3c2C(=O)N(C2CCC(=O)NC2=O)C3=O)nn1 (centres undefined) |  |  | Active | Dose-Dependent Effect
